Test results taken from patent publication US10507212B2, “Method for use of homopiperazinium compounds in the treatment of cancer” (UNIVERSITÉ LAVAL, priority 2014, dated 2019).
Counter-ions that a name gives are not always drawn. Like-named read-outs stand apart in the source and are kept apart here.

Legend:
[1] = system: H82 small cell lung carcinoma; test: Cell proliferation assay, H82 (CellTiter fluorescence); format: cell-based; conditions: for inhibition at 300 µM / inhibition at 100 µM / IC50: Homo sapiens; for inhibition at 300 µM / inhibition at 100 µM: read-out: % Inhibition of Cell Growth at day 3 compared to vehicle-treated cells
Description: (§1) In vitro experiments were conducted on four cancer cell lines: the A549 adenocarcinoma cell line, the H520 squamous cell carcinoma the H82 small cell lung carcinoma and Calu 3 lung adenocarcinoma. The A549 tumor cells, were plated at a density of 1.5×10^4 cells per mL and let to adhere on 96-well microplates in F12K cell culture medium enriched with 10% fetal calf serum (FCS). The H520, H82 and Calu 3 tumor cells were plated at a density of 5×10^4 cells per mL in RPMI+10% FCS. After 24 h in culture, the medium was changed and cells were exposed to ASM-024 at concentrations ranging from 10^−7M to 10^−3M (FIGS. 1A-1C). After 3 and 6 days in culture, cell growth was quantified using the MTT colorimetric assay (M2128, Sigma) at 575-690 nm or the Cell Titer fluorescence assay (G8080, Promega) at 560/590 nm.
(§2) In an another set of experiments, a series of 16 other homopiperazinium compounds, in addition to ASM-024, were tested for their anti-proliferative effect on the four tumor cell lines described above after up to 6 days in culture at concentrations of 10^-7M to 10^-3M. (FIGS. 4A-4E) Cell growth was quantified using the MTT colorimetric assay for the A-549, H520 and Calu 3 cell lines and the CellTiter Fluorescence assay.for the H82 tumor cell line These are established method of determining viable cell number in proliferation studies.

[2] = system: A549 adenocarcinoma cell line; test: Cell proliferation assay, A549 (MTT)
Description: as §1, §2

[3] = system: H520 squamous cell carcinoma; test: Cell proliferation assay, H520 (MTT); format: cell-based
Description: as §1, §2

[4] = system: Calu 3 lung adenocarcinoma; test: Cell proliferation assay, Calu 3 (MTT); format: cell-based; conditions: Homo sapiens
Description: as §1, §2

[5] = read-out: IC50 Day 3, A549, day 3 in culture
[6] = read-out: IC50 Day 6, A549, day 6 in culture
[7] = H520, day 3 in culture, read-out: IC50 Day 3
[8] = H520, day 6 in culture, read-out: IC50 Day 6
[9] = NCI-H82, 72 h, H82, day 3, 3 × 10^−4M
[10] = NCI-H82, 72 h, H82, day 3, 10^−4M
[11] = Homo sapiens, A549, 72 h, read-out: IC50 Day 3, A549, day 3 in culture
[12] = Homo sapiens, A549, 144 h, read-out: IC50 Day 6, A549, day 6 in culture
[13] = Homo sapiens, NCI-H520, 72 h, H520, day 3 in culture, read-out: IC50 Day 3
[14] = Homo sapiens, NCI-H520, 144 h, H520, day 6 in culture, read-out: IC50 Day 6
[15] = Homo sapiens, NCI-H520, 72 h, read-out: IC50 Day 3, H520, day 3 in culture
[16] = Homo sapiens, NCI-H520, 144 h, read-out: IC50 Day 6, H520, day 6 in culture
[17] = NCI-H82, 72 h, H82, day 3 in culture, read-out: IC50 Day 3
[18] = NCI-H82, 144 h, H82, day 6 in culture, read-out: IC50 Day 6
[19] = 72 h, Calu 3, day 3 in culture, read-out: IC50 Day 3
[20] = 144 h, Calu 3, day 6 in culture, read-out: IC50 Day 6
[21] = NCI-H82, 72 h, read-out: IC50 Day 3
[22] = NCI-H82, 144 h, read-out: IC50 Day 6

C[N+]1(C)CCCN(c2ccc(C(F)(F)F)cc2)CC1 (as salt: iodide) [ASM-071, 4-Dimethyl-1-(4-trifluorophenyl)-homopiperazinium Iodide]
melting point: 224.3 to 225.4 °C

C[N+]1(C)CCCN(c2ccc(C(F)(F)F)cc2)CC1 (as salt: tosylate) [ASM-058, 1,1-Dimethyl-4-(4-trifluoromethylphenyl)-homopiperazinium Tosylate]
melting point: 212.6 to 213.4 °C

Cc1cccc(N2CCC[N+](C)(C)CC2)c1 (as salt: tosylate) [ASM-068, 4-Dimethyl-1-(3-methylphenyl)-homopiperazinium Tosylate]
melting point: 161.6 to 162.5 °C

CC[N+]1(CC)CCCN(c2ccc(O)cc2)CC1 (as salt: tosylate) [ASM-073, 1,1-Diethyl-4-(phenyl-4-hydroxy)-homopiperazinium tosylate]
melting point: 144 to 145.5 °C

CC[N+]1(CC)CCCN(c2ccccc2)CC1.[I-] [ASM-009, 1,1-Diethyl-4-phenyl-homopiperazinium Iodide]
% Inhibition of Cell Growth at day 3 compared to vehicle-treated cells ([1]; H82, day 3, 3 × 10^−4M): 35% | % Inhibition of Cell Growth at day 3 compared to vehicle-treated cells ([1]; H82, day 3, 10^−4M): −12% | IC50 [2, 5]: 51 ± 6 µM | IC50 [2, 6]: 48 ± 25 µM | IC50 [3, 7]: 892 ± 98 µM | IC50 [3, 8]: 396 ± 147 µM

C[N+]1(C)CCCN(c2ccccn2)CC1 [ASM-016, 1,1-Dimethyl-4-(2-pyridyl)-homopiperazinium Iodide]
inhibition at 300 µM [1, 9]: -6% | inhibition at 100 µM [1, 10]: -22% | IC50 [2, 11]: 90 ± 15 µM | IC50 [2, 12]: 58 ± 22 µM | IC50 [3, 13]: 415 ± 212 µM | IC50 [3, 14]: 180 ± 92 µM

CC[N+]1(C)CCCN(c2ccccn2)CC1 (stereo not drawn) [ASM-017, 1-Ethyl-1-methyl-4-(2-pyridyl)-homopiperazinium Iodide]
inhibition at 100 µM ([1]; NCI-H82, 72 h): -26% | inhibition at 300 µM ([1]; NCI-H82, 72 h): -6% | IC50 [2, 11]: 89 ± 13 µM | IC50 [2, 12]: 65 ± 25 µM | IC50 [3, 15]: 953 ± 39 µM | IC50 [3, 16]: 469 ± 163 µM

CCC[N+]1(C)CCCN(c2ccccn2)CC1 (stereo not drawn) [ASM-018, 1-Methyl-1-propyl-4-(2-pyridyl)-homopiperazinium Iodide]
inhibition at 300 µM [1, 9]: 35% | inhibition at 100 µM [1, 10]: 15% | IC50 [2, 11]: 136 ± 39 µM | IC50 [2, 12]: 82 ± 32 µM | IC50 [3, 13]: > 1000 µM | IC50 [3, 14]: 536 ± 101 µM

CC[N+]1(CC)CCCN(c2ccccc2)CC1.[Br-] [ASM-021, 1,1-Diethyl-4-phenyl-homopiperazinium Bromide]
% Inhibition of Cell Growth at day 3 compared to vehicle-treated cells ([1]; H82, day 3, 3 × 10^−4M): 59% | % Inhibition of Cell Growth at day 3 compared to vehicle-treated cells ([1]; H82, day 3, 10^−4M): 13% | IC50 [2, 11]: 45 ± 12 µM | IC50 [2, 12]: 51 ± 39 µM | IC50 [3, 7]: > 1000 µM | IC50 [3, 14]: 369 ± 171 µM

CC[N+]1(CC)CCCN(c2ccccc2)CC1.[Cl-] [ASM-022, 1,1-Diethyl-4-phenyl-homopiperazinium Chloride]
% Inhibition of Cell Growth at day 3 compared to vehicle-treated cells ([1]; H82, day 3, 3 × 10^−4M): 55% | % Inhibition of Cell Growth at day 3 compared to vehicle-treated cells ([1]; H82, day 3, 10^−4M): 23% | IC50 [2, 5]: 46 ± 7 µM | IC50 [2, 6]: 45 ± 32 µM | IC50 [3, 7]: > 700 µM | IC50 [3, 8]: 387 ± 178 µM

CC[N+]1(CC)CCCN(c2ccccn2)CC1 [ASM-037, 1,1-Diethyl-4-(2-pyridyl)-homopiperazinium Tosylate]
inhibition at 300 µM [1, 9]: 29% | inhibition at 100 µM [1, 10]: 10% | IC50 [2, 11]: 146 ± 92 µM | IC50 [2, 12]: 112 ± 96 µM | IC50 [3, 13]: > 1000 µM | IC50 [3, 14]: 634 ± 124 µM

CC[N+]1(CC)CCCN(c2ccc(Cl)cc2)CC1 [ASM-048, 1,1-Diethyl-4-(4-chlorophenyl)-homopiperazinium Tosylate]
IC50 [1, 17]: 246 µM | IC50 [1, 18]: 176 µM | IC50 [2, 11]: 37 µM | IC50 [2, 12]: 15 µM | IC50 [4, 19]: 276 µM | IC50 [4, 20]: 86 µM | IC50 [3, 13]: 322 µM | IC50 [3, 14]: 169 µM

CC[N+]1(CC)CCCN(c2ccc(F)cc2)CC1 [ASM-049, 1,1-Diethyl-4-(4-fluorophenyl)-homopiperazinium Tosylate]
IC50 [1, 17]: 331 µM | IC50 [1, 18]: 252 µM | IC50 [2, 11]: 81 ± 74 µM | IC50 [2, 12]: 42 ± 34 µM | IC50 [4, 19]: 452 µM | IC50 [4, 20]: 109 µM | IC50 [3, 13]: > 700 µM | IC50 [3, 14]: 288 ± 61 µM

CC[N+]1(C)CCCN(c2ccccc2)CC1 (stereo not drawn) [ASM-055, 1-Ethyl-1-Methyl-4-(phenyl)-homopiperazinium Tosylate]
inhibition at 300 µM [1, 9]: 66% | inhibition at 100 µM [1, 10]: 36% | IC50 [2, 11]: 60 ± 26 µM | IC50 [2, 12]: 28 ± 15 µM | IC50 [3, 13]: 622 ± 211 µM | IC50 [3, 14]: 272 ± 65 µM

C[N+]1(C)CCCN(c2ccc(C(F)(F)F)cc2)CC1 [ASM-058, 1,1-Dimethyl-4-(4-trifluoromethylphenyl)-homopiperazinium Tosylate]
IC50 [1, 21]: 472 µM | IC50 [1, 22]: 299 µM | IC50 [2, 11]: 22 ± 10 µM | IC50 [2, 12]: 27 ± 26 µM | IC50 [3, 15]: 356 ± 143 µM | IC50 [3, 16]: 210 ± 82 µM

Cc1cccc(N2CCC[N+](C)(C)CC2)c1 [ASM-068, 4-Dimethyl-1-(3-methylphenyl)-homopiperazinium Tosylate]
IC50 [1, 21]: 298 µM | IC50 [1, 22]: 179 µM | IC50 [2, 11]: 36 ± 17 µM | IC50 [2, 12]: 20 ± 16 µM | IC50 ([4]; Calu-3, 72 h, read-out: IC50 Day 3): > 1000 µM | IC50 ([4]; Calu-3, 144 h, read-out: IC50 Day 6): 52 µM | IC50 [3, 15]: 580 ± 85 µM | IC50 [3, 16]: 233 ± 31 µM

C[N+]1(C)CCCN(c2ccc(C(F)(F)F)cc2)CC1 [ASM-071, 4-Dimethyl-1-(4-trifluorophenyl)-homopiperazinium Iodide]
IC50 [2, 5]: 25 ± 15 µM | IC50 [2, 6]: 18 ± 9 µM | IC50 ([3]; read-out: IC50 Day 3, H520, day 3 in culture): 523 ± 292 µM | IC50 ([3]; read-out: IC50 Day 6, H520, day 6 in culture): 235 ± 179 µM

CC[N+]1(CC)CCCN(c2ccc(O)cc2)CC1 [ASM-073, 1,1-Diethyl-4-(phenyl-4-hydroxy)-homopiperazinium tosylate]
inhibition at 100 µM ([1]; NCI-H82, 72 h): 100% | inhibition at 300 µM ([1]; NCI-H82, 72 h): 100% | IC50 [2, 11]: 119 ± 49 µM | IC50 [2, 12]: 161 ± 82 µM | IC50 [3, 15]: 187 ± 28 µM | IC50 [3, 16]: 148 ± 14 µM

C[N+]1(C)[C@@H]2C[C@@H](OC(=O)C(O)(c3cccs3)c3cccs3)C[C@H]1[C@@H]1O[C@@H]12 [Tiotropium, reference compound]
cell proliferation / cell growth inhibition (in words) ([1]; H82, day 3 and day 6, text on figures): no significant cell growth inhibition | IC50 (in words) ([1]; H82, cell line not given): No IC50 could be calculated | cell proliferation / cell growth inhibition (in words) ([2]; A549, day 3 and day 6, text on figures): no significant cell growth inhibition | IC50 (in words) ([2]; A549, cell line not given): No IC50 could be calculated | cell proliferation / cell growth inhibition (in words) ([3]; H520, day 3 and day 6, text on figures): no significant cell growth inhibition | IC50 (in words) ([3]; H520, cell line not given): No IC50 could be calculated

CC(C)[N+]1(C)[C@@H]2CC[C@H]1C[C@@H](OC(=O)C(CO)c1ccccc1)C2 (stereo partly drawn) [ipratropium, reference compound]
cytotoxic effect ([2]; A549, at 1000 μM): cytotoxic effect
